Tests used:
[1] = Pharmacokinetic study of compound of Formula I and salt forms (Example 23); assay type: in vivo; settings: male, rat, plasma, SD rats, oral, 10 mg/kg, prepared in purified water 0.5 mg/mL
Text: Drugs and reagents: 6-(2-chloro-3,5-dimethoxyphenyl)-N-(4-(4-morpholinopiperidin-1-yl)phenyl)-[1,2,4]triazolo[4′,3′:1,6]pyrido[2,3-d]pyrimidin-2-amine (compound of Formula I) and salt forms thereof which include malate salt crystalline form, tartrate salt crystalline form, phosphate salt crystalline form, methanesulfonate salt crystalline form, hydrochloride salt crystalline form, fumarate salt crystalline form, citrate salt crystalline form, besylate salt crystalline form used in this study were ground to fine particles.
Experimental animals: SD rats were randomly divided into the compound of Formula I group and each salt crystalline form of the compound of Formula I group, each group including three male rats.
Pharmaceutical preparation: each compound was prepared in purified water, wherein, the mesylate salt crystalline form, hydrochloride salt crystalline form and besylate salt crystalline form were prepared into a clear solution, the malate salt crystalline form, tartrate salt crystalline form, phosphate salt crystalline form, fumarate salt crystalline form, citrate salt crystalline form and sulfate salt crystalline form were prepared into a suspension, and final concentration of each compound was 0.5 mg/mL. […]
The samples were analyzed by AB4000 API LC/MS combined with HPLC. […]

FGFR3 = FGFR3 (Homo sapiens, UniProt P22607); experiment: Kinase assay (mobility shift assay)
Text: (§1) Prepare compounds: dilute test compounds to specific concentration using 100% DMSO

FGFR2 = FGFR2 (Homo sapiens, UniProt P21802); experiment: Kinase assay (mobility shift assay)
Text: as §1

[2] = Pharmacokinetic study of compound of Formula I and maleate salt crystalline form 1 (Example 22); assay type: in vivo; settings: male, rat, plasma, SD rats, oral, 10 mg/kg, 10% DMSO/10% Solutol/80% Water
Text: Drugs and reagents: 6-(2-chloro-3,5-dimethoxyphenyl)-N-(4-(4-morpholinopiperidin-1-yl)phenyl)-[1,2,4]triazolo[4′, 3′:1,6]pyrido[2,3-d]pyrimidin-2-amine (compound of Formula I), and maleate salt crystalline form 1 of the compound of Formula I used in this study were grounded to fine particles. The material content (purity) was not less than 99.0%.
Experimental animals: SD rats were randomly divided into the compound of Formula I group and maleate salt crystalline form 1 group, each group including three male rats.
Pharmaceutical preparation: each compound was prepared into a clear solution in 10% DMSO/10% Solutol/80% Water solution, the final concentration of each compound was 1 mg/mL.
Administration and sample collection: each suspension was orally administered to fasted SD rats with a dose volume of 10 mL/kg and an administration dose of 10 mg/kg. The blood samples were collected in EDTA-K pre-anticoagulantion tubes before administration (0 h) and at 0.25 h, 0.5 h, 1 h, 2 h, 4 h, 7 h and 24 h after administration. The plasma was separated from the samples by centrifugation at 4000 rpm for 10 minutes at 4° C. The plasma was collected and stored at −80° C. for analysis.
The samples were analyzed by AB4000 API LC/MS combined with HPLC. Under liquid chromatography conditions, a phenomenex C18 2.6 u (50×2.1 mm) column was used as the stationary phase, acetonitrile-water and 0.1% formic acid were used as the mobile phase, and the injection volume was 10 μL.

[3] = Stability assessment (influencing factors, 14 days; XRD, TGA, HPLC); assay type: physicochemical; settings: for Crystalline form (XRD) / Decrease value of the main ingredient content (HPLC) / Weight loss (TGA): 14th day
Procedure: Samples and preparation of experimental: An appropriate amount of maleate salt crystalline form 1, methanesulfonate salt crystalline form 1 and the compound of Formula I were put in watch glasses, and then spread into a thin layer about 3-5 mm in thickness.
Experimental conditions: Under conventional (25° C., avoid light), high temperature (60° C., avoid light), high temperature and high humidity (40° C./75% RH, open and avoid light), light (25° C., 4500 lux±500 lux, open) and oxidation (40° C., container closure containing urea hydrogen peroxide, open and avoid light) conditions for 14 days.
Test items: Sampled on 0th day and 14th day, the XRD, TGA and HPLC were tested and compared, the test results on the 14th day were show in Table 27.

FGFR4 = FGFR4 (Homo sapiens, UniProt P22455); experiment: Kinase assay (mobility shift assay)
Chain of FGFR4 (P22455 22-802, species assumed): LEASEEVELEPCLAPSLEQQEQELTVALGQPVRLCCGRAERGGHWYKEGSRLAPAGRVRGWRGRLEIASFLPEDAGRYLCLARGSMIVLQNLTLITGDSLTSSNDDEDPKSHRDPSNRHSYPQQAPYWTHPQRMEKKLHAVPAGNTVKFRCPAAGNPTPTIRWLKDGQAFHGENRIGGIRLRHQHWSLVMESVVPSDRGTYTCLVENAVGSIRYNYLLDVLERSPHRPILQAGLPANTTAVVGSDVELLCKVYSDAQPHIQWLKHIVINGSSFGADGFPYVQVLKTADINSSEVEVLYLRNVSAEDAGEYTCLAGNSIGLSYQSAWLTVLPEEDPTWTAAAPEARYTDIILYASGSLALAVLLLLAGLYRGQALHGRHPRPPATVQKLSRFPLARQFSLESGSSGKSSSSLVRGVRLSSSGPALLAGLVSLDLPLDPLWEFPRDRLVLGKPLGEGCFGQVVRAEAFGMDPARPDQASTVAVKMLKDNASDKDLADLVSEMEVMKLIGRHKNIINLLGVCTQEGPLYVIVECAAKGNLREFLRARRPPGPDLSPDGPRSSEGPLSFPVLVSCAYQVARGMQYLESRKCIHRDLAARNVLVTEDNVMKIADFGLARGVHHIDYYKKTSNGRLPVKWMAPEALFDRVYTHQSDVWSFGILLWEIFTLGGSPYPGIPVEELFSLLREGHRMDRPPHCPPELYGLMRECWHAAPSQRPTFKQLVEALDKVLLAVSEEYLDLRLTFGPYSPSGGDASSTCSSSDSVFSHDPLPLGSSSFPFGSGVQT
Text: as §1

NCI-H1581 cells = experiment: cells; settings: Homo sapiens, NCI-H1581, read-out: IC50 on NCI-H1581 cells
Procedure: 100 μl of CellTiter-Glo reagent was added to the assay plate and incubated for 10 min at room temperature to stabilize the luminescence signal.

[4] = Hygroscopicity assessment by dynamic vapor sorption (DVS); assay type: physicochemical; settings: weight change between 0% RH to 80% RH, 25° C.
Procedure: The hygroscopicity of the sample (the sample is a variety of crystal forms shown in Table 26) was tested using dynamic vapor sorption (DVS) instrument, and the water uptake of the sample at 0% RH (relative humidity) to 80% RH was tested.

SNU-16 cells = experiment: Cell proliferation assay (CellTiter Glo); assay type: cell-based; settings: Homo sapiens, growth inhibition in vitro, 96 hrs
Procedure: Test method: the cells were added appropriate volume of whole medium to suspend. 100 μl of the cell suspension was added to a 96-well plate and placed in a CO2 incubator overnight. Tested compounds were dissolved in DMSO and subjected to a 3-fold gradient dilution for a total of 10 concentrations. Tested compound and DMSO reference materials were transferred to the corresponding wells containing 100 μl of medium respectively. Incubated in 5% CO2 at 37° C. for 96 hrs. 100 μl of CellTiter-Glo reagent was added to the assay plate and incubated for 10 min at room temperature to stabilize the luminescence signal. The IC50 value was calculated by recording the RLU (relative luminescence unit) using VICTOR TM X5 instrument.

[5] = conventional (25° C., avoid light)
[6] = high temperature (60° C., avoid light)
[7] = high temperature and high humidity (40° C./75% RH)
[8] = oxidation (40° C., urea hydrogen peroxide)

Chain of FGFR3 (P22607 23-806, species assumed): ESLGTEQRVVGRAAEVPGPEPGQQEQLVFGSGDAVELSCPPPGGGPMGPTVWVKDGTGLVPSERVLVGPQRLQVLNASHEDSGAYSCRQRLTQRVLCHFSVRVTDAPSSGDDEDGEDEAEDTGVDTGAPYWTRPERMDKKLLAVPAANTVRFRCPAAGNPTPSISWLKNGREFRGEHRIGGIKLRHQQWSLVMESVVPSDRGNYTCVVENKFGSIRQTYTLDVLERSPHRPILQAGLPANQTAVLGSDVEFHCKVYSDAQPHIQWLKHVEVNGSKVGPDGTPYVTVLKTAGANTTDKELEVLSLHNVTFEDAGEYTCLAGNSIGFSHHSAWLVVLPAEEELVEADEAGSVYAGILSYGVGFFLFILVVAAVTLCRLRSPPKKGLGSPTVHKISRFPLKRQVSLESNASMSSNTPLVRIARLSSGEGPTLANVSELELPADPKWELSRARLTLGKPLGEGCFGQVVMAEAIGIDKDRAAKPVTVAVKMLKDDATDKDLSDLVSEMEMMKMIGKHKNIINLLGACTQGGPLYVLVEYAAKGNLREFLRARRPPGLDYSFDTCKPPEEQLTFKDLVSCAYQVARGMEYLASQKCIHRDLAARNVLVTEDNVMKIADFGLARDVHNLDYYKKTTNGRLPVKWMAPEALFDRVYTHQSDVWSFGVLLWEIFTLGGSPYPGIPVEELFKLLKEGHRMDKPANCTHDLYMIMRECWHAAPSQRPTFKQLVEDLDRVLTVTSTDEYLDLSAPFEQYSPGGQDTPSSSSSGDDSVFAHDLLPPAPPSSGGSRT
Chain of FGFR2 (P21802 22-821, species assumed): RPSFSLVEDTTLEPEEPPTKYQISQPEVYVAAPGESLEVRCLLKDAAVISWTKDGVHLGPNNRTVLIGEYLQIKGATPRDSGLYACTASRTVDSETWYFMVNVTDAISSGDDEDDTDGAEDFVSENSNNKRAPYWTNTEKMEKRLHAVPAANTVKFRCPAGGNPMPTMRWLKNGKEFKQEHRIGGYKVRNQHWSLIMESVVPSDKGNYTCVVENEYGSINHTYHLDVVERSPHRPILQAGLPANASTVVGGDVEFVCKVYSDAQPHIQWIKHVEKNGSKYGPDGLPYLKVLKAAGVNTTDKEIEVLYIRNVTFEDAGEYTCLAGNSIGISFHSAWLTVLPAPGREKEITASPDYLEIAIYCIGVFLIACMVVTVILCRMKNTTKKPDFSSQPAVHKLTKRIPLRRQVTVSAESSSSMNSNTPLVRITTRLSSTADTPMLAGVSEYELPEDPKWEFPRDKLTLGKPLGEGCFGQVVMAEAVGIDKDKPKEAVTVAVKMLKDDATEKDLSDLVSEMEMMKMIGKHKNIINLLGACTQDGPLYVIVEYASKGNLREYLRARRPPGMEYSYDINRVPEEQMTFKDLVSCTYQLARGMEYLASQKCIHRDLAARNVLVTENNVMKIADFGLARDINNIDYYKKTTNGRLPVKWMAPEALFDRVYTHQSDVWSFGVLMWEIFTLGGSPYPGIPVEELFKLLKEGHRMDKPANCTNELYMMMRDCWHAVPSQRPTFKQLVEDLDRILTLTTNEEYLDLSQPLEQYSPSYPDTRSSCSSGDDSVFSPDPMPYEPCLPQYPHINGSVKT

SMILES: COc1cc(OC)c(Cl)c(-c2cc3cnc(Nc4ccc(N5CCC(N6CCOCC6)CC5)cc4)nc3n3cnnc23)c1 [compound of Formula I, 6-(2-chloro-3,5-dimethoxyphenyl)-N-(4-(4-morpholinopiperidin-1-yl)phenyl)-[1,2,4]triazolo[4′,3′:1,6]pyrido[2,3-d]pyrimidin-2-amine]
- Cmax [1]: 179 ng/mL
- AUC(0-t) ([1]; read-out: AUC(0-24)): 786 ng·h/mL
- IC50 (FGFR3): 1.2 nM
- IC50 (FGFR2): 1.7 nM
- AUC(0-inf) [2]: 6520 ng·h/mL
- Cmax [2]: 443 ng/mL
- Tmax [2]: 6 h
- half-life [2]: 7.9 h
- AUC(0-t) ([2]; read-out: AUC(0-24)): 5870 ng·h/mL
- Crystalline form (XRD) [3, 5]: unchanged
- Decrease value of the main ingredient content (HPLC) [3, 5]: <0.4%
- Weight loss (TGA) [3, 5]: 20%-22%
- Crystalline form (XRD) [3, 6]: transformed
- Decrease value of the main ingredient content (HPLC) [3, 6]: 13.5%
- Weight loss (TGA) [3, 6]: about 18%
- Decrease value of the main ingredient content (HPLC) [3, 7]: <0.4%
- Weight loss (TGA) [3, 7]: 20%-22%
- Crystalline form (XRD) ([3]; high temperature and high humidity (40° C./75% RH, open, avoid light)): decrease
- Weight loss (TGA) ([3]; light (25° C., 4500 lux±500 lux)): 20%-22%
- Crystalline form (XRD) ([3]; light (25° C., 4500 lux±500 lux, open)): transformed
- Decrease value of the main ingredient content (HPLC) [3, 8]: 40.3%
- Weight loss (TGA) [3, 8]: about 27%
- Crystalline form (XRD) ([3]; oxidation (40° C., urea hydrogen peroxide, open, avoid light)): transformed
- stability of crystalline form (XRD, overall statement) ([3]; 14 days, all conditions): relatively low
- IC50 (FGFR4): 21 nM
- IC50 (NCI-H1581 cells): 2 nM
- water uptake [4]: 15.3%
- IC50 (SNU-16 cells): < 1 nM

— patent US20210340142A1, “SALT FORM AND CRYSTAL FORM OF NOVEL AZATRICYCLIC COMPOUND AND USE THEREOF” (BETTA PHARMACEUTICALS CO., LTD, priority 2018, published 2021)
